Measured values: publication PMC11983575, “Study on the synthesis and biological activity of kojic acid triazol thiosemicarbazide Schiff base derivatives” (Journal of Enzyme Inhibition and Medicinal Chemistry, 2025)

Legend:
[1] = ABTS radical cation scavenging activity assay; conditions: 734 nm; read-out: ABTS+/IC50 (μM) ± SD
Protocol: ABTS free radical scavenging activity was performed according to the procedure described by Zhang et al.[40] Test solution of ABTS decolourisation assay was prepared by mixing 2.45 mM potassium persulfate and 7 mM ABTS at 8:12 volume/volume ratio. The working solution was kept in the dark at room temperature for 12–18 h. Before ABTS radical scavenging test, the ABTS test solution was diluted with DMSO to absorbance of 0.7 (±0.02) at 734 nm. One millilitre of diluted ABTS test solution was added to 10 μl of DMSO or test sample. After initial mixing, the working solution was kept in the dark at room temperature for 2–6 min, and the absorbance was measured at 734 nm. This test was carried out in triplicate. DMSO was used as a control. Ascorbic acid was used as antioxidant standard for comparison of the activity. The absorbance of test samples was calculated by the following formula. ABTS scavenging ability %=absorbance of standard−absorbance of sample/absorbance of standard×100.

[2] = DPPH free radical scavenging activity assay; conditions: DPPH 150 μM, 30 min, 517 nm; read-out: DPPH/IC50 (μM) ± SD
Protocol: The anti-oxidation effect on DPPH radical was determined by a slightly modified version of a previously described DPPH radical scavenging assay. Reaction mixtures consisted of 100 μl of DPPH (150 μM), 20 μl of increasing concentration of test compounds and the volume was adjusted to 200 μl in each well with DMSO. The assay solution was then incubated at room temperature (25 °C) for 30 min in the dark. After the incubation, absorbance at 517 nm was measured by using UV-2600 spectrophotometer. The experiments were undertaken in triplicate. DMSO was used as a control. Ascorbic acid was used as antioxidant standard for comparison of the activity. The calculation of DPPH radical scavenging activity was followed by this formula: DPPH radical scavenging activity %=absorbance of standard−absorbance of sample/Absorbance of standard×100

[3] = molecular target: mushroom tyrosinase (Agaricus bisporus, UniProt C7FF04); test: Tyrosinase kinetic analysis (Lineweaver-Burk plots); assay type: biochemical
Protocol: To study the inhibition type of kojic acid-triazole derivatives, the investigation of inhibitory type of selected compound 6w on mushroom tyrosinase was carried out according to reported protocol. Compound 6w was used at the concentrations of […], respectively. Substrate L-DOPA concentration was between 500 µM and 1000 µM in the process of all kinetic study. Pre-incubation time and measurement time were the same as described in mushroom tyrosinase inhibition assay procedure. Lineweaver–Burk’s plots of inverse of velocities (1/V) versus inverse of substrate concentration 1/[S] µM^−1 were used to determine the type of enzyme inhibition.
Among the assessed kojic acid triazol thiosemicarbazide Schiff base derivatives, compound 6w expressed better tyrosinase inhibitory activity than the other compounds, in order to further explore the inhibition mechanism, the inhibitory type of the compound 6w on mushroom tyrosinase was decided by the Lineweaver–Burk double reciprocal plots. The Lineweaver–Burk plots were obtained by different concentrations of the compound 6w and the substrate (Figure 2(A)). The plots of 1/V versus 1/[S] gave a family of straight lines with different slopes. […] All of the straight lines intersected at a point in the second quadrant. […] The inhibition constant (Ki) of the compound was obtained by a plot of the slope versus the concentrations of the compound 6w, Kis of the compound was obtained by a plot of vertical intercept (1/Vm) versus the concentrations of the compound 6w, the results were shown in Figure 2(B,C). […] Compound 6w has a better binding with free enzyme.
Figure 2. Kinetic inhibition measurement of compound 6w. […] (A) The concentrations of compound 6w in the figure were 0, 0.5 μM, 1 μM, and 2 μM, respectively. (B) The secondary replot indicates the intercept versus the concentrations of compound 6w to define the inhibition constant Kis. (C) The secondary replot indicates the slope versus the concentrations of compound 6w to define the inhibition constant Ki.

mushroom tyrosinase, sequence (C7FF04 1-392): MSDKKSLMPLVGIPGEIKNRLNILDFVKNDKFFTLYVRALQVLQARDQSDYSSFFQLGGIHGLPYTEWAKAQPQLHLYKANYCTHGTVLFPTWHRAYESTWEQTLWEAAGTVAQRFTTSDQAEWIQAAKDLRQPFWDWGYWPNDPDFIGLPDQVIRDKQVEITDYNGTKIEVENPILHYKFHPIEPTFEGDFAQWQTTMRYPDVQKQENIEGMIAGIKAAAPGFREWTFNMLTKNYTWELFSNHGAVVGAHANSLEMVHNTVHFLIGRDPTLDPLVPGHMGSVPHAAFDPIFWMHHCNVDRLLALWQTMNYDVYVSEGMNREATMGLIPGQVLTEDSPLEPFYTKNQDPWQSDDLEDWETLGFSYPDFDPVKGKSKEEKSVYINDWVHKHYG

In the case of “2-(1-(4-((1-((5-Hydroxy-4-oxo-4H-pyran-2-yl)methyl)-1H-1,2,3-triazol-5-yl)methoxy)phenyl)ethylidene)hydrazinecarbothioamide [Compound 6w]”, the IC50 [1] is reported as 3.03 ± 0.009 µM, the IC50 [2] is reported as 14.44 ± 0.077 µM and the inhibition type ([3]; Lineweaver-Burk double reciprocal plots) is reported as “mixed type inhibitor”. The Ki ([3]; from plot of slope versus concentration of 6w, free enzyme, read-out: inhibition constant Ki) was 0.0003 µM and the “inhibition constant Kis” value ([3]; from plot of vertical intercept (1/Vm) versus concentration of 6w) was 0.1997 µM.
